Measured values taken from US8546414B2, “Ion channel modulators and methods of use” (Vertex Pharmaceuticals Incorporated, priority 2004, dated 2013).

Tests used:
Assay type in all cases: cell-based
CaV2.2 = biological target: T1, CaV2.2 (Homo sapiens, UniProt Q00975); experiment: VIPR optical membrane potential assay with electrical stimulation, CaV2.2; details: Table 9, CaV 2.2 receptors
T1 construct: expressed in transfected cells; host or cells: HEK293
How it was run: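 HEK293 cells stably expressing CaV2.2 stained with CC2-DMPE/DiSBAC2(3) voltage-sensitive dyes (10 μM final CC2-DMPE, 30 min, RT), then compound added and cells electrically stimulated for 3-5 s. Read-out: background-subtracted 460/580 nm emission ratio; response R=Rf/Ri (post- vs pre-stimulus ratio); antagonism seen as reduced response.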

NaV1.3 = biological target: T2, NaV1.3 (Homo sapiens, UniProt Q9NY46); experiment: VIPR optical membrane potential assay with electrical stimulation, NaV1.3; details: Table 9, NaV 1.3 receptors
T2 construct: expressed in transfected cells; host or cells: HEK293
T2 sequence (Q9NY46 whole entry): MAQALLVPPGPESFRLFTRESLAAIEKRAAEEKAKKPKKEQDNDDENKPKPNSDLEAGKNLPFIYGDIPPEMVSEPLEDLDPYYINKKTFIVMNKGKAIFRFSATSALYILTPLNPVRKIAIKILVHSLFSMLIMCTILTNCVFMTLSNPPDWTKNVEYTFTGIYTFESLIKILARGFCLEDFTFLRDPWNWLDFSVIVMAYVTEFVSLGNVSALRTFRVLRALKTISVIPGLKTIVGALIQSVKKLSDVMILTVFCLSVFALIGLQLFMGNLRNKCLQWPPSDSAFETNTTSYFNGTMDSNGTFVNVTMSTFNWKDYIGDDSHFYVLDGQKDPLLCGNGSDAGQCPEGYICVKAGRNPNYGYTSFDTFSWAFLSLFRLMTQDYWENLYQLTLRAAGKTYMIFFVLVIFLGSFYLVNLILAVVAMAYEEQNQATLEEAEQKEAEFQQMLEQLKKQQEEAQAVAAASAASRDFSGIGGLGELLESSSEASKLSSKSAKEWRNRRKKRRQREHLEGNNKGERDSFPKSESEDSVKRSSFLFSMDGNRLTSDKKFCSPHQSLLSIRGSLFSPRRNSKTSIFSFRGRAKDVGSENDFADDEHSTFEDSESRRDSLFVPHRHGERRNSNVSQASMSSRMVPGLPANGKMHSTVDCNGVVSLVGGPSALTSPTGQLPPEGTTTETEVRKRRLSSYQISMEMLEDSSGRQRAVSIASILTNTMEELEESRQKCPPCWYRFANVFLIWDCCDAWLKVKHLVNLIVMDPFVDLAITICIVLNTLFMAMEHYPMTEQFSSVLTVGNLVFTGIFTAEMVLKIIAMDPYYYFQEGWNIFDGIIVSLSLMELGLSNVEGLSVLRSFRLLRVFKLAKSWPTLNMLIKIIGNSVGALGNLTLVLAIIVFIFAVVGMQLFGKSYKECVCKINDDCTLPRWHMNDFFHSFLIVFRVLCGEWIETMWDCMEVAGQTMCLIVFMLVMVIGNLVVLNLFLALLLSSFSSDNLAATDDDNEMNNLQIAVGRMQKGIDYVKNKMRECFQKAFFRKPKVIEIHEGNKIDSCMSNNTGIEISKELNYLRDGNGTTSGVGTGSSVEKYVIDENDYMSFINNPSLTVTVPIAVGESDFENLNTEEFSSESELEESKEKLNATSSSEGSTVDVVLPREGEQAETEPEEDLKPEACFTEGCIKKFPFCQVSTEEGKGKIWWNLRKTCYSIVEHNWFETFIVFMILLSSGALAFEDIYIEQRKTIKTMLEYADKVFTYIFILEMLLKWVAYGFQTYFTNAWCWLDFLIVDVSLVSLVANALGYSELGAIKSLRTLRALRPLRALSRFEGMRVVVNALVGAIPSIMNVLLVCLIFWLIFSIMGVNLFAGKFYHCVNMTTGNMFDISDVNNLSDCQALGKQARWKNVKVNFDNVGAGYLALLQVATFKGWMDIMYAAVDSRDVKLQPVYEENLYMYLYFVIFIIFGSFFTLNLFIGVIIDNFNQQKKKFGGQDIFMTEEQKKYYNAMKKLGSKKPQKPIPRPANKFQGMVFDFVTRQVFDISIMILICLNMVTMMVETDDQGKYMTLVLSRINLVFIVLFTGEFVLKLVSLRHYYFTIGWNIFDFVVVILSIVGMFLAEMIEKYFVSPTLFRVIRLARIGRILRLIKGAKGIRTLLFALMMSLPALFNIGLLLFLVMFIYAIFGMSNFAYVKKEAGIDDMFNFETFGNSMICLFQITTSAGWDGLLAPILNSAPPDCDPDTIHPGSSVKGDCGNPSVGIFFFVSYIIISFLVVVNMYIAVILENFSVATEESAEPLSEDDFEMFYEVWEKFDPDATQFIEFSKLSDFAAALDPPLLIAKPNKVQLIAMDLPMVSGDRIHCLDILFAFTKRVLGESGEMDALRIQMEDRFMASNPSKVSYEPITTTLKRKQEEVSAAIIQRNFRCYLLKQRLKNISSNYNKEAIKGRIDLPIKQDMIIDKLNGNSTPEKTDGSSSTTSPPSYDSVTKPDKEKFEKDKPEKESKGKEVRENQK
How it was run: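 HEK293 cells stably expressing NaV1.3, stained with CC2-DMPE (10 μM final) then DiSBAC2(3) with ABSC1, 30 min each at RT; compounds added with oxonol. Electrical stimulation for 3 s; 460/580 nm background-subtracted emission ratio Rf/Ri, normalised to tetracaine (positive) and untreated (negative) controls.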

NaV1.8 = NaV1.8 (Homo sapiens, UniProt Q9Y5Y9); experiment: VIPR optical membrane potential assay, NaV1.8 (other subtypes in an analogous mode); details: Table 9, NaV 1.8 receptors
Sequence of NaV1.8 (Q9Y5Y9 whole entry): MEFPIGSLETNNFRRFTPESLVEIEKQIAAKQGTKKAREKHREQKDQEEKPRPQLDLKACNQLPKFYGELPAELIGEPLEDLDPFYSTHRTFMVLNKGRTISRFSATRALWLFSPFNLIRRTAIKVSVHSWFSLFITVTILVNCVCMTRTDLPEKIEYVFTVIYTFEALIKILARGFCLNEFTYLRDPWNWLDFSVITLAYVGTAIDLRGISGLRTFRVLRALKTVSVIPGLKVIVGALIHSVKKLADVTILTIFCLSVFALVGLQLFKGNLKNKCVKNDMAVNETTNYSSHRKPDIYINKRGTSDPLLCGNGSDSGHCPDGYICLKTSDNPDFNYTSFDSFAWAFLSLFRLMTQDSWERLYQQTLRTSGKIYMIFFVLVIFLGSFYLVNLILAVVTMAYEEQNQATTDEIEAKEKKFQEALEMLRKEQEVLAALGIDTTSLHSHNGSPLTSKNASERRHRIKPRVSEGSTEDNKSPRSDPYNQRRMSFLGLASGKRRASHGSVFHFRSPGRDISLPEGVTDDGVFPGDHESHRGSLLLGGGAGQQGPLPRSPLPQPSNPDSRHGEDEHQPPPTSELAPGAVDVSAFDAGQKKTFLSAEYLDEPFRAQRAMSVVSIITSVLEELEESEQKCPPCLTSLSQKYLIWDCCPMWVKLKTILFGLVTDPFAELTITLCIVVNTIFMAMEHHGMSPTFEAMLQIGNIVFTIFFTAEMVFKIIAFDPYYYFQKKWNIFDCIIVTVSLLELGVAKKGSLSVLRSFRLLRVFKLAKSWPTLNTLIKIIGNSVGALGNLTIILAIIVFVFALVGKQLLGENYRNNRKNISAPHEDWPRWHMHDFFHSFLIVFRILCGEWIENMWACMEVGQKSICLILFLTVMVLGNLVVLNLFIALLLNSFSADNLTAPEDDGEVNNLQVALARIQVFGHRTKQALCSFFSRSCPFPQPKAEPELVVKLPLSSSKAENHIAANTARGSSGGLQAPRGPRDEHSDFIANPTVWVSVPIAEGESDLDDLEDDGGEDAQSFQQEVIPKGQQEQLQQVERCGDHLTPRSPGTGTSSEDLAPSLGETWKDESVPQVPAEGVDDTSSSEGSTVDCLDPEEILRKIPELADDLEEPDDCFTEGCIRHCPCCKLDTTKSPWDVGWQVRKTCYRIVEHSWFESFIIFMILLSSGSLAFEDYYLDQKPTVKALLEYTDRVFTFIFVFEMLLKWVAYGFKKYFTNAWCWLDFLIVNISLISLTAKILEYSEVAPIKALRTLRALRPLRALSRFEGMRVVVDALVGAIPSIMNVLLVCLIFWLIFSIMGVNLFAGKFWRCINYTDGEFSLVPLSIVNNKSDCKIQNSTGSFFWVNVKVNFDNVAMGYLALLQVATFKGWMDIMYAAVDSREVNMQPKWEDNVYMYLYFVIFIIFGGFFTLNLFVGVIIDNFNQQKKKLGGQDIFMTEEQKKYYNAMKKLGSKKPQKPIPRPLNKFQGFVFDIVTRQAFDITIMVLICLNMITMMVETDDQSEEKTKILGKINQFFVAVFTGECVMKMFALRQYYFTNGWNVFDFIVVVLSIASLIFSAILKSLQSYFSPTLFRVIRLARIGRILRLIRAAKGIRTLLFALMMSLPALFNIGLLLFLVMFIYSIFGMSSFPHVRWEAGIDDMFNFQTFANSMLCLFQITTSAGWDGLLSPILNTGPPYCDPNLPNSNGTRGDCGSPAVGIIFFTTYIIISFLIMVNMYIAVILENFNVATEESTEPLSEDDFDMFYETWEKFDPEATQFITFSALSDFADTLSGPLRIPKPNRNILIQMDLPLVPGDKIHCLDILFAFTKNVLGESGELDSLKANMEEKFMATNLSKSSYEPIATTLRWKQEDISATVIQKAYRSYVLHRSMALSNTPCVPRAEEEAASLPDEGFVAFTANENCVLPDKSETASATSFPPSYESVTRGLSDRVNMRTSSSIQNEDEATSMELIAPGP
How it was run: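 Cells expressing the NaV subtype stained with coumarin and DiSBAC2(3) membrane-potential dyes, then incubated with test compound for 20-30 minutes. Depolarization evoked by sodium addback and read optically on VIPR; block measured as reduced membrane-potential response, with tetracaine as positive control.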

SMILES | IC50 (CaV2.2) | IC50 (NaV1.3) | IC50 (NaV1.8)
CN1CCN(c2ncc(C(=O)N(Cc3ccc(C(C)(C)C)cc3)C3CC3)c(-c3ccccc3F)n2)CC1 [compound 176] | 2 to 10 µM | > 10 µM | > 10 µM
CC(C)N(Cc1ccccc1)C(=O)c1cnc(Nc2cccc(Cl)c2)nc1-c1ccccc1F [compound 177] | > 10 µM | > 10 µM | > 10 µM
CC(C)N(C(=O)c1cnc(N2CCOCC2)nc1-c1ccccc1F)c1cccc([N+](=O)[O-])c1 [compound 178] | > 10 µM | > 10 µM | > 10 µM
CN1CCN(c2ncc(C(=O)N(Cc3ccccc3)C3CCC3)c(-c3ccccc3F)n2)CC1 [compound 180] | 2 to 10 µM | 2 to 10 µM | > 10 µM
CC(C)N(Cc1ccccc1)C(=O)c1cnc(Nc2ccc(F)cc2)nc1-c1ccccc1F [compound 181] | > 10 µM | > 10 µM | > 10 µM
CC(C)N(C(=O)c1cnc(N2CCOCC2)nc1-c1ccccc1F)c1ccc2c(c1)OCO2 [compound 182] | 2 to 10 µM | > 10 µM | > 10 µM
COc1cccc(N(C(=O)c2cnc(N3CCOCC3)nc2-c2ccccc2F)C2CC2)c1 [compound 183] | > 10 µM | > 10 µM | > 10 µM
COc1ccc(CN(C(=O)c2cnc(N3CCC4CCCCC4C3)nc2-c2ccccc2F)C2CC2)cc1 (stereo not drawn) [compound 184] | 2 to 10 µM | > 10 µM | > 10 µM
COc1ccc(N(C(=O)c2cnc(N3CCOCC3)nc2-c2ccccc2F)C(C)C)cc1 [compound 185] | 2 to 10 µM | > 10 µM | > 10 µM
COc1cccc(CN(C(=O)c2c(C)nc(N3CCOCC3)nc2-c2ccccc2F)C(C)C)c1 [compound 186] | 2 to 10 µM | 2 to 10 µM | > 10 µM
O=C(c1cnc(N2CCOCC2)nc1-c1ccccc1F)N1Cc2ccccc2C1 [compound 187] | > 10 µM | > 10 µM | > 10 µM
COc1cccc(CN(C(=O)c2cnc(NC(C)c3ccccc3)nc2-c2ccccc2F)C(C)C)c1 (stereo not drawn) [compound 188] | < 2 µM | < 2 µM | 2 to 10 µM
COc1cccc(N(C(=O)c2cnc(N3CCC4CCCCC4C3)nc2-c2ccccc2F)C2CC2)c1 (stereo not drawn) [compound 189] | 2 to 10 µM | > 10 µM | > 10 µM
COc1cccc(N(C(=O)c2cnc(N3CCOCC3)nc2-c2ccccc2F)C2CCC2)c1 [compound 190] | > 10 µM | 2 to 10 µM | > 10 µM
O=C(c1cnc(N2CCOCC2)nc1-c1ccccc1F)N1CCCC(c2ccc(F)cc2)C1 (stereo not drawn) [compound 191] | > 10 µM | > 10 µM | > 10 µM
Cc1nc(N2CCCCC2)nc(-c2ccccc2F)c1C(=O)N(Cc1ccc2c(c1)CCO2)C1CC1 [compound 192] | > 10 µM | > 10 µM | > 10 µM
COc1ccc(CN(C(=O)c2cnc(N3CCN(C)CC3)nc2-c2ccccc2F)C2CC2)cc1 [compound 193] | > 10 µM | > 10 µM | > 10 µM
CC(C)N(Cc1ccccc1)C(=O)c1cnc(N2CCOCC2)nc1-c1ccccc1Cl [compound 194, N-benzyl-4-(2-chlorophenyl)-N-isopropyl-2-morpholinopyrimidine-5-carboxamide] | < 2 µM | 2 to 10 µM | 2 to 10 µM
O=C(c1cnc(N2CCOCC2)nc1-c1ccccc1F)N(Cc1cccc(C(F)(F)F)c1)C1CC1 [compound 195] | 2 to 10 µM | > 10 µM | > 10 µM
O=C(NC1CCCCC1)c1cnc(N2CCOCC2)nc1-c1ccccc1F [compound 196] | > 10 µM | > 10 µM | > 10 µM
COc1cccc(N(C(=O)c2cnc(N3CCOCC3)nc2-c2ccccc2F)C2CCOCC2)c1 [compound 197] | > 10 µM | > 10 µM | > 10 µM
CC(C)N(Cc1ccc(N2CCCC2)cc1)C(=O)c1cnc(N2CCCCC2)nc1-c1ccccc1Cl [compound 198] | 2 to 10 µM | > 10 µM | > 10 µM
